Results from patent US7897580B2, “β glycolipids as immuno-modulators” (priority 2005, dated 2011).

Legend:
[1] = test system: human Hep3B HCC; assay: Hep3B hepatocellular carcinoma transplanted into athymic Balb/c mice (Example 2); assay type: in vivo; conditions: for hepatic/splenic NKT lymphocyte ratio / reduction of tumor volume (% change from maximal volume) / tumors developed (% of animals) / maximal tumor volume: daily i.p. 1.5 μg for 25 days; for hepatic/splenic NKT lymphocyte ratio: PBS control 0.38, p<0.05, FIG. 7; for reduction of tumor volume (% change from maximal volume): controls 10% increase, p<0.05, FIG. 6; for tumors developed (% of animals): controls 100%, FIG. 4; for maximal tumor volume: controls 101.14 mm^3, p<0.05, FIG. 5; for STAT4 expression in splenocytes / STAT6 expression in splenocytes: vs. controls, FIG. 9
Description: Splenocytes were isolated and red blood cells removed as previously described [Vicari, A. P., et al., Immunology Today 17(2):71 (1996)]. Intrahepatic lymphocytes were isolated from all groups of mice at the end of the study, as previously described, with some modifications [Vicari et al., (1996) ibid.; Bleicher, P. A., et al., Science 250:679-682 (1990)]. […] The connective tissue and the gall bladder were removed, and livers were place in a 10-ml dish in cold sterile PBS. Livers and spleens were crushed through a stainless mesh (size 60, Sigma Chemical Co., St. Louis Mo.). Cell suspension was placed in a 50 ml tube for 3 minutes and washed twice in cold PBS (1,250×rpm for 10 minutes), and debris was removed. Cells were re-suspended in PBS, cell suspension was placed through a nylon mesh presoaked in PBS, and unbound cells were collected. Cells were washed twice in 45 ml PBS (1,250×rpm in room temperature). For liver and spleen lymphocyte isolation 20 ml of histopague 1077 (Sigma Diagnostics, St. Louis, Mo.) were slowly placed underneath the cells suspended in 7 ml of PBS, in a 50-ml tube. The tube was centrifuged at 1,640 rpm for 15 minutes at room temperature. Cells at the interface were collected, diluted in a 50-ml tube, and washed twice with ice-cold PBS (1,250 rpm for 10 minutes). Approximately 1×10^6 cells/mouse liver were recovered. The viability by trypan blue staining was more than 95%. Both splenocytes and liver-associated lymphocytes were isolated from all animals in all experimental groups.
Immediately following lymphocyte isolation, triplicates of 2-5×10^4 cells/500 μl PBS were put into Falcon 2052 tubes incubated with 4 ml of 1% BSA for 10 minutes, and centrifuged at 1400 rpm for 5 minutes. Analysis of lymphocyte subpopulations was performed using anti-NK1.1, anti-CD3, anti-CD4 and anti CD-8 antibodies. Cells were washed twice in 1% BSA, and kept in 4° C. until reading. For the control group, only 5 μl of 1% BSA was added. Analytical cell sorting was performed on 1×10^4 cells from each group with a fluorescence-activated cell sorter (FACSTAR plus, Becton Dickinson). Only live cells were counted, and background fluorescence from non-antibody-treated lymphocytes was deducted from the levels obtained. Gates were set on forward- and side-scatters to exclude dead cells and red blood cells. The data were analyzed with Consort 30 two-color contour plot program (Becton Dickinson, Oxnard, Calif.), or the CELLQuest program.
Blood was drawn from mice in all groups and centrifuged at 14,000 rpm. Serum INFγ, IL2, IL4, IL10 and IL-12 levels were measured by “sandwich” ELISA using Genzyme Diagnostics kits (Genzyme Diagnostics, Mass.).
To determine the clinical and immunological consequences of administration of different β-glycolipids such as β-glucosylceramide (GluC), β-lactosyl-ceramide (LacC), and β-galactosyl-ceramide (GalC) and of ceramide on hepatocellular carcinoma (HCC), mice transplanted with human Hep3B HCC cells, were studied. Five groups of athymic Balb/c mice, consisting of 8 mice each, were sublethally irradiated and transplanted with human Hep3B HCC, followed by daily intraperitoneal injections of GluC, LacC, GalC, ceramide (1.5 μg in 100 μl PBS) or PBS (100μ) for 25 days. Animals were followed for tumor size and weight and for intrahepatic and intrasplenic lymphocyte subpopulations, serum cytokine levels and expression of STAT1, STAT4 and STAT6 in splenocytes.

[2] = test system: TNBS induced colitis; assay: TNBS-induced colitis, mixture of β-GluC and β-LacC vs β-LacC alone (Example 3); assay type: in vivo, mice; conditions: with TNBS; for Weight: share of mice, TNBS alone: Weight loss, listed as β-LC
Description: (§1) 2,4,6-trinitrobenzene sulfonic acid (TNBS)—colitis was induced by intracolonic instillation of TNBS, 1 mg/mouse, dissolved in […] of 50% ethanol as described. [Collins, C., etal., Eur. J. Immunol. 26:3114-3118 (1996)].
(§2) Diarrhea was followed daily throughout the study.
(§3) Colitis assessment was performed 14 days following colitis induction using standard parameters [Madsen, K. L., et al., Gastroenterology 113:151-159 (1997); Trop, S., et al., Hepatology 27:746-755 (1999)].
Four macroscopic parameters were determined, namely: degree of colonic ulcerations; intestinal and peritoneal adhesions; wall thickness; and degree of mucosal edema. Each parameter was graded on a scale from 0 (completely normal) to 4 (most severe) by two experienced blinded examiners.
For histological evaluation of inflammation, distal colonic tissue (last 10 cm) was removed and fixed in 10% formaldehyde. Five paraffin sections from each mouse were then stained with hematoxylin-eosin by using standard techniques. The degree of inflammation on microscopic cross sections of the colon was graded semiquantitatively from 0 to 4 [Madsen et al., (1997) ibid.; Trop et al., Hepatology 27:746-755 (1999)]. Grade 0: normal with no signs of inflammation; Grade 1: very low level of leukocyte infiltration; Grade 2: low level of leukocyte infiltration; and Grade 3: high level of infiltration with high vascular density, and bowel wall thickening; Grade 4: transmural infiltrates with loss of goblet cells, high vascular density, wall thickening, and disruption of normal bowel architecture. The grading was performed by two experienced blinded examiners.
To determine the possible immuno-modulation effect of a mixture of different β-glycolipids, the effect of a mixture of β-Glucocerebroside and β-Lactosyl-ceramide was tested using a murine model of colitis.
As summarized in Table 3, five groups of mice were studied, each consisting of 10 mice. Colitis was induced by intracolonic installation of trinitrobenzenesulfonic acid (TNBS) on day 1 and 5 in groups A, B and D. Group A mice were fed regular chow diet. […]

[3] = Mixture of β-GluC and β-LacC or β-LacC alone in mice not treated with TNBS, control groups (Example 3); assay type: in vivo; conditions: without TNBS
Description: As summarized in Table 3, five groups of mice were studied, each consisting of 10 mice. Colitis was induced by intracolonic installation of trinitrobenzenesulfonic acid (TNBS) on day 1 and 5 in groups A, B and D. Group A mice were fed regular chow diet. Group B mice received oral (PO) 15 μg daily of a mixture of β-GluC and β-LacC, group D received only β-LacC. Groups C and E mice were not treated with TNBS, but received oral (PO) 15 μg daily of a mixture of β-GluC and β-LacC or only β-LacC, respectively, and served as control groups.
Mice were followed for macroscopic and microscopic colitis scores, as well as for survival and functional status and weight.

[4] = test system: TNBS colitis; assay: TNBS-induced experimental colitis, single β-glycolipids (Example 1); assay type: in vivo, C57Bl mice; conditions: oral 15 μg daily, compared with controls
Description: as §1, §2, §3
Four macroscopic parameters were determined, namely: degree of colonic ulcerations; intestinal and peritoneal adhesions; wall thickness; and degree of mucosal edema. Each parameter was graded on a scale from 0 (completely normal) to 4 (most severe) by two experienced blinded examiners. […]
Immediately following lymphocyte isolation, triplicates of 2-5×10^4 cells/500 μl PBS were put into Falcon 2052 tubes incubated with 4 ml of 1% BSA for 10 minutes, and centrifuged at 1400 rpm for 5 minutes. […] Cells were washed twice in 1% BSA, and kept in 4° C. until reading. […] Analytical cell sorting was performed on 1×10^4 cells from each group with a fluorescence-activated cell sorter (FACSTAR plus, Becton Dickinson). Only live cells were counted, and background fluorescence from non-antibody-treated lymphocytes was deducted from the levels obtained. […]

What does the source list for ceramide?
hepatic/splenic NKT lymphocyte ratio [1]: 0.85; reduction of tumor volume (% change from maximal volume) [1]: 81%; tumors developed (% of animals) [1]: 50%; maximal tumor volume [1]: 64.4 mm^3; STAT4 expression in splenocytes [1]: increased; STAT6 expression in splenocytes [1]: increased

Which “reduction of tumor volume (% change from maximal volume)” value [1] does the source give for β-galactosyl-ceramide [GalC] here?
Its value is 49%.

And the “tumors developed (% of animals)” value [1]?
The value was 71%.

And the maximal tumor volume [1]?
The maximal tumor volume was 86.1 mm^3.

What about the “STAT4 expression in splenocytes” value [1] of the same substance?
The value was “increased”.

And the “STAT6 expression in splenocytes” value [1]?
The value was “increased”.

Which “hepatic/splenic NKT lymphocyte ratio” value [1] does the source give for β-glucosylceramide here?
The value was 6.13.

And the “reduction of tumor volume (% change from maximal volume)” value [1]?
Its value is 43%.

And the “tumors developed (% of animals)” value [1]?
Its value is 87%.

And the maximal tumor volume [1]?
Its maximal tumor volume is 71.4 mm^3.

Which Weight ([2]; share of mice with no weight change) does the source give for β-lactosyl-ceramide [LacC] here?
Its Weight is “In 90% no change”.

And the Weight ([2]; share of mice with weight increase)?
Its Weight is “In 10% increase”.

What about the Activity ([2]; TNBS alone: Lethargic) of the same substance?
The Activity was “Normal”.

What about the Activity [3] of the same substance?
Its Activity is “Normal”.

And the Weight ([3]; share of mice)?
The Weight was “In 100% increase”.

What about the “alleviation of colitis (microscopic colitis scores)” value ([4]; FIG. 1) of the same substance?
The value was “most marked”.

And the “alleviation of colitis (microscopic colitis scores)” value ([4]; FIG. 1, listed as Lactosyl-ceramide)?
Its value is “most potent”.

What about the “hepatic/splenic NKT lymphocyte ratio” value [1] of the same substance?
The value was 1.94.

And the “reduction of tumor volume (% change from maximal volume)” value [1]?
The value was 78%.

And the “tumors developed (% of animals)” value [1]?
The value was 43%.

And the maximal tumor volume [1]?
Its maximal tumor volume is 77.9 mm^3.

What about the “STAT4 expression in splenocytes” value [1] of the same substance?
The value was “increased”.

What about the “STAT6 expression in splenocytes” value [1] of the same substance?
The value was “increased”.
